The subject of data set [1] is passiven cutanen Anaphylaxie (PCA). Kind of data set: Passive cutaneous anaphylaxis (PCA) in rats sensitised with ovalbumin antiserum. Particulars: for inhibition in vivo at 1 mg/kg: ip, read-out: % Hemmung X ± SX; for inhibition in vivo at 1 mg/kg / % Hemmung X ± SX: intraperitoneal, 1 mg/kg test substance, mean ± SX; for ED50: Rattus norvegicus, dose reducing diameter of dye spots by 50 % vs untreated controls, read-out: Hemmung der PCA Ratte ED 50 %; for ED50 / Hemmung der PCA Ratte R.W. (Relative Wirksamkeit) / mal wirksamer als die Vergleichsverbindung V1: oral administration; for Hemmung der PCA Ratte R.W. (Relative Wirksamkeit): relative to V1 = 1,00. The format is in vivo, Ratte. How it is done:
Die antiallergische Wirkung wurde an Ratten getestet. Zur ' Prüfung wurde das Modell der passiven cutanen Anaphylaxie (PCA) verwendet.
Narkotisierte männliche Ratten (100 bis 140 g) werden durch intradermale Injektion (rasierte Rückenhaut) von 0,1 ml eines Ovalbumin-Antiserums sensibilisiert. Nach einer Sensibilisierungsperiode von ca. 48 Stunden erfolgt die Behandlung (intraperitoneale bzw. orale Applikation) mit unterschiedlichen Dosierungen (10 Tiere/Dosis) der Prüfsubstanzen. 15 bis 20 Minuten nach der Behandlung wird eine Antigen/Evansblau-Hischung (10 mg/kg Ovalbumin in 2 %iger Evansblau-Lösung) den Versuchstieren intravenös injiziert. 30 Minuten später werden die Tiere getötet, die Rückenhaut abgezogen und auf der inneren Oberfläche der Durchmesser der kreisförmigen Blaufärbung gemessen. Die Größe der Farbflecke unbehandelter Kontrolltiere ist standardisierbar. Antiallergisch wirksame Substanzen verkleinern dosisabhängig den Durchmesser der Farbflecke. Als ED 50 % wird die Dosis angegeben die im Vergleich zu medikamentös unbehandelten Kontrolltieren den Durchmesser der Farbflecke um 50 % herabsetzt.

Data set [2] can be described thus: Acute toxicity, mouse, intraperitoneal. As to conditions: in vivo, ip, read-out: LD 50 Maus i.p. From the text:
(§1) Außer der antiallergischen Wirkung wurde die akute Toxizität an Gruppen von je 2 NMRI-Mäusen, Gewicht 20 bis 26 g, bei intraperitonealer Applikation und an je 2 Sprangue--Dawley-Ratten, Gewicht 120 bis 150 g, bei oraler Applikation ermittelt. Die Bestimmung der LD 50 erfolgte an Gruppen von je 10 NMRI-Mäusen, Gewicht 20 bis 26 g,nach intraperitonealer Applikation. Die Nachbeobachtungszeit betrug 14 Tage.

Data set [3] is described as follows: Acute toxicity, rat, oral. As to conditions: in vivo, read-out: LD 50 Ratte p.o.
Excerpt: as §1

Data set [4] in a line: Water solubility (remark in synthesis example). The class given is physicochemical.
The mark [5] stands for this setting: NMRI mice, intraperitoneal, 14 days observation.
Setting [6] is: Sprague-Dawley rats, oral, 14 days observation.

A value given as a limit tells only on which side of the number the result lay.

On to `CCOC(=O)C(=O)Nc1nc2c(s1)CCCCC2` [Beispiel 5, N-(Cycloheptano[1,2-d]thiazol-2-yl)oxamidsäureethylester], for which the inhibition in vivo at 1 mg/kg in data set [1] (PCA rat) was 34 ± 6%.

`CCOC(=O)C(=O)Nc1nc2c(s1)CCC2` [Beispiel 1, N-(Cyclopentano[1,2-d]thiazol-2-yl)-oxamidsäureethylester]: the LD50 at 336 h in data set [2] (setting [5]) was about 464 mg/kg; in data set [3] (setting [6]), over 2150 mg/kg. Further, in data set [1], the ED50 stood at 1.59 mg/kg. Also, the inhibition in vivo at 1 mg/kg in data set [1] (PCA rat) is 25 ± 4.7%. The “Hemmung der PCA Ratte R.W. (Relative Wirksamkeit)” value in data set [1] is 5,40.

Regarding `CC(C)(C)OC(=O)C(=O)Nc1nc2c(s1)CCCC2` [Beispiel 7], in data set [3] (setting [6]), the LD50 at 336 h is over 2150 mg/kg. Moreover, in data set [1], the ED50 was determined as 2.35 mg/kg and the “Hemmung der PCA Ratte R.W. (Relative Wirksamkeit)” value is 3,65. The inhibition in vivo at 1 mg/kg in data set [1] (PCA rat) was 33 ± 7.9%.

On to `CCOC(=O)C(=O)Nc1nc2ccccc2s1` [V1, N-Benzthiazol-2-yl-oxamidsäureethylester, reference compound], for which the LD50 at 336 h in data set [2] (setting [5]) was about 464 mg/kg. Besides, the LD50 at 336 h in data set [3] (setting [6]) is over 2150 mg/kg. Besides, in data set [1], the ED50 was found to be 8.6 mg/kg and the “Hemmung der PCA Ratte R.W. (Relative Wirksamkeit)” value was 1,00. Besides, in data set [1] (PCA rat), the inhibition in vivo at 1 mg/kg came to 26 ± 6.5%.

With `CCOC(=O)C(=O)Nc1nc2c(s1)C(C)(C)CC(C)(C)C2` [Beispiel 4, N-(5,5,7,7-Tetramethylcyclohexano[1,2-d]thiazol-2-yl)-oxamidsäureethylester], in data set [1] (PCA rat), the inhibition in vivo at 1 mg/kg stood at 15 ± 3.5%.

Consider `CCOC(=O)C(=O)Nc1nc2c(s1)CCCC2` [Beispiel 2, N-(Cyclohexano[1,2-d]thiazol-2-yl)-oxamidsäureethylester], for which the LD50 at 336 h is 422 mg/kg in data set [2] and over 2150 mg/kg in data set [3] (po). In addition, the inhibition in vivo at 1 mg/kg in data set [1] (PCA rat) came to 61 ± 8.8%. In addition, the “mal wirksamer als die Vergleichsverbindung V1” value in data set [1] (PCA rat) was determined as 11.9. The “Hemmung der PCA Ratte R.W. (Relative Wirksamkeit)” value in data set [1] is recorded as 11,90.

`O=C(O)C(=O)Nc1nc2c(s1)CCCC2` [Beispiel 6, N-(Cyclohexano[1,2-d]thiazol-2-yl)-oxamidsäure]: the LD50 at 336 h in data set [2] is about 464 mg/kg. Moreover, the LD50 at 336 h in data set [3] (po) is over 2150 mg/kg. In data set [1], the ED50 was 3.09 mg/kg and the “Hemmung der PCA Ratte R.W. (Relative Wirksamkeit)” value was 2,78. Also, in data set [1] (PCA rat), the inhibition in vivo at 1 mg/kg was 63 ± 6.6% and the “mal wirksamer als die Vergleichsverbindung V1” value was 2,8.

Take “N-(6-tert.-Butylcyclohexano[1,2-d]thiazol-2-yl)-oxamidsäureethylester [Beispiel 3]”: the “% Hemmung X ± SX” value in data set [1] (PCA rat) was 14 ± 4,1%.

As for “N-(Cyclohexano[1,2-d]thiazol-2-yl)-oxamidsäure-ethanol- aminsalz [Beispiel 8]”, the “% Hemmung X ± SX” value in data set [1] (PCA rat) is 73 ± 7,5%. Besides, the Wasserlöslichkeit result in data set [4] is reported as “gut wasserlöslichen”.

`O=C(O)c1cc(=O)c2c(OCC(O)COc3cccc4oc(C(=O)O)cc(=O)c34)cccc2o1` [Cromolyne, reference compound]: in data set [3] (setting [6]), the LD50 at 336 h was over 2150 mg/kg. Moreover, in data set [1] (PCA rat, up to 100 mg/kg p.o.), the “antiallergische Wirkung nach oraler Applikation” value is reported as “unwirksam”. In data set [1], the ED50 was 100 mg/kg. For the same molecule, the inhibition in vivo at 1 mg/kg in data set [1] (PCA rat) is 21 ± 3.6%.

(Values after patent EP0044443A1, “Cycloalkano-thiazolyloxamidic-acid derivatives, process for their preparation and pharmaceutical compositions containing them” (BASF Aktiengesellschaft, priority 1980, dated 1982).)
